Tested on: SEM cells
Assay: cell viability relative to DMSO control; higher = less cytotoxic
Conditions: 48 h
Procedure, shortened: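 Viability is a per-plate percentage relative to DMSO wells, with cell-free wells as background. CellTiter-Glo One luminescence was read after 48 h at 37°C on 1536-well plates (5 μl) of NOMO1 or SEM (500 cells/well) or P12-Ichikawa (1000 cells/well) leukemia cells. The cells had been adapted for at least four passages in each medium and pin-dosed with library compounds in DMSO from 47 μM to 0.79 nM in 11 threefold steps.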

[1] = HPLM + 10% dialyzed FBS, 0.000781 µM
[2] = HPLM + 10% dialyzed FBS, 0.00234 µM
[3] = HPLM + 10% dialyzed FBS, 0.00702 µM
[4] = HPLM + 10% dialyzed FBS, 0.0211 µM
[5] = HPLM + 10% dialyzed FBS, 0.0632 µM
[6] = HPLM + 10% dialyzed FBS, 0.19 µM
[7] = HPLM + 10% dialyzed FBS, 0.569 µM
[8] = HPLM + 10% dialyzed FBS, 1.71 µM
[9] = HPLM + 10% dialyzed FBS, 5.12 µM
[10] = HPLM + 10% dialyzed FBS, 15.4 µM
[11] = HPLM + 10% dialyzed FBS, 46.1 µM
[12] = RPMI 5 mM glucose + 10% FBS, 0.000781 µM
[13] = RPMI 5 mM glucose + 10% FBS, 0.00234 µM
[14] = RPMI 5 mM glucose + 10% FBS, 0.00702 µM
[15] = RPMI 5 mM glucose + 10% FBS, 0.0211 µM
[16] = RPMI 5 mM glucose + 10% FBS, 0.0632 µM
[17] = RPMI 5 mM glucose + 10% FBS, 0.19 µM
[18] = RPMI 5 mM glucose + 10% FBS, 0.569 µM
[19] = RPMI 5 mM glucose + 10% FBS, 1.71 µM
[20] = RPMI 5 mM glucose + 10% FBS, 5.12 µM
[21] = RPMI 5 mM glucose + 10% FBS, 15.4 µM
[22] = RPMI 5 mM glucose + 10% FBS, 46.1 µM
[23] = RPMI 5 mM glucose + 10% dialyzed FBS, 0.000781 µM
[24] = RPMI 5 mM glucose + 10% dialyzed FBS, 0.00234 µM
[25] = RPMI 5 mM glucose + 10% dialyzed FBS, 0.00702 µM
[26] = RPMI 5 mM glucose + 10% dialyzed FBS, 0.0211 µM
[27] = RPMI 5 mM glucose + 10% dialyzed FBS, 0.0632 µM
[28] = RPMI 5 mM glucose + 10% dialyzed FBS, 0.19 µM
[29] = RPMI 5 mM glucose + 10% dialyzed FBS, 0.569 µM
[30] = RPMI 5 mM glucose + 10% dialyzed FBS, 1.71 µM
[31] = RPMI 5 mM glucose + 10% dialyzed FBS, 5.12 µM
[32] = RPMI 5 mM glucose + 10% dialyzed FBS, 15.4 µM
[33] = RPMI 5 mM glucose + 10% dialyzed FBS, 46.1 µM

Compound | cell viability [1] [%] | cell viability [2] [%] | cell viability [3] [%] | cell viability [4] [%] | cell viability [5] [%] | cell viability [6] [%] | cell viability [7] [%] | cell viability [8] [%] | cell viability [9] [%] | cell viability [10] [%] | cell viability [11] [%] | cell viability [12] [%] | cell viability [13] [%] | cell viability [14] [%] | cell viability [15] [%] | cell viability [16] [%] | cell viability [17] [%] | cell viability [18] [%] | cell viability [19] [%] | cell viability [20] [%] | cell viability [21] [%] | cell viability [22] [%] | cell viability [23] [%] | cell viability [24] [%] | cell viability [25] [%] | cell viability [26] [%] | cell viability [27] [%] | cell viability [28] [%] | cell viability [29] [%] | cell viability [30] [%] | cell viability [31] [%] | cell viability [32] [%] | cell viability [33] [%]
C=C1C(=O)[C@@]23C(CC[C@@H]1[C@H]2O)[C@@]12CO[C@]3(O)[C@@H](O)[C@@H]1C(C)(C)CC[C@@H]2O (stereo partly specified) | 102 | 96.9 | 109 | 113 | 119 | 103 | 98.5 | 103 | 70 | 20.5 | 3.53 | 106 | 86.9 | 107 | 101 | 104 | 102 | 86.7 | 67.7 | 37 | 4.45 | 2.3 | 105 | 7.74 | 99.2 | 109 | 113 | 107 | 92 | 97.3 | 49.3 | 9.6 | 2.85
COc1cc2ncn(-c3cc(OCc4ccccc4[S+](C)(=O)[O-])c(C#N)s3)c2cc1OC | 102 | 102 | 90.9 | 105 | 95.1 | 98.3 | 98.3 | 103 | 78.5 | 95.7 | 82.4 | 114 | 110 | 100 | 124 | 121 | 110 | 108 | 107 | 94.4 | 122 | 93.4 | 92.4 | 107 | 89.1 | 103 | 98.9 | 110 | 112 | 101 | 106 | 98.7 | 78.9

Reference: the supplement of paper PMC11451515
